# Results taken from US20240025907A1, “QUINAZOLINE PAN-KRas INHIBITORS” (Mirati Therapeutics, Inc., priority 2022, published 2024).
# Read-outs that look alike come from different tables or passages of the source.
# How the values were obtained:
# Format in all cases: cell-based
# [1] = tested on: KRas-mediated Phosphorylation of ERK in AsPC-1 cells; assay: Cisbio HTRF pERK assay, AsPC-1 cells; conditions: for inhibition at 0.1 µM: ASPC1, single point at 100 nM; for IC50: 3 hrs compound, read-out: Inhibition (HTRF IC50 nM) of KRas-mediated Phosphorylation of ERK, AsPC-1
# [2] = tested on: KRas-mediated Phosphorylation of ERK in H727 cells; assay: Cisbio HTRF pERK assay, H727 cells; conditions: for inhibition at 0.1 µM: NCI-H727, single point at 100 nM; for IC50: 3 hrs compound, read-out: Inhibition (HTRF IC50 nM) of KRas-mediated Phosphorylation of ERK, H727
# [3] = tested on: KRas-mediated Phosphorylation of ERK in HCT116 cells; assay: Cisbio HTRF pERK assay, HCT116 cells; conditions: for inhibition at 0.1 µM: HCT-116, HCT116 cells, single point at 100 nM; for IC50: HCT116 cells, 3 hrs compound, read-out: Inhibition (HTRF IC50 nM) of KRas-mediated Phosphorylation of ERK, HCT116
# [4] = tested on: KRas-mediated Phosphorylation of ERK in A549 cells; assay: Cisbio HTRF pERK assay, A549 cells; conditions: for inhibition at 0.1 µM: A549, A549 cells, single point at 100 nM; for IC50: A549 cells, 3 hrs compound, read-out: Inhibition (HTRF IC50 nM) of KRas-mediated Phosphorylation of ERK, A549
# [5] = tested on: KRas-mediated Phosphorylation of ERK in H358 cells; assay: Cisbio HTRF pERK assay, H358 cells; conditions: for inhibition at 0.1 µM: NCI-H358, H358 cells, single point at 100 nM; for IC50: H358 cells, 3 hrs compound, read-out: Inhibition (HTRF IC50 nM) of KRas-mediated Phosphorylation of ERK, H358
# [6] = tested on: KRas-mediated Phosphorylation of ERK in H460 cells; assay: Cisbio HTRF pERK assay, H460 cells; conditions: for inhibition at 0.1 µM: NCI-H460, H460 cells, single point at 100 nM; for IC50: H460 cells, 3 hrs compound, read-out: Inhibition (HTRF IC50 nM) of KRas-mediated Phosphorylation of ERK, H460
SMILES,inhibition at 0.1 µM ([1]; Homo sapiens) [%],inhibition at 0.1 µM ([2]; Homo sapiens) [%],inhibition at 0.1 µM ([3]; Homo sapiens) [%],inhibition at 0.1 µM ([4]; Homo sapiens) [%],inhibition at 0.1 µM ([5]; Homo sapiens) [%],inhibition at 0.1 µM ([6]; Homo sapiens) [%],other results
"CCc1c(F)ccc2cc(O)cc(-c3ccc4c(N5CCCn6nc(C(=O)N(C)C)c(Cl)c6C5)nc(OC[C@@]56CCCN5C[C@H](F)C6)nc4c3F)c12 [Example 74, 3-chloro-5-(7-(8-ethyl-7-fluoro-3-hydroxynaphthalen-1-yl)-8-fluoro-2-(((2R,7aS)-2-fluorohexahydro-1H-pyrrolizin-7a-yl)methoxy)quinazolin-4-yl)-N,N-dimethyl-5,6,7,8-tetrahydro-4H-pyrazolo[1,5-a][1,4]diazepine-2-carboxamide]",99,78,38,72,98,,
"CCc1c(F)ccc2cc(O)cc(-c3c(F)cc4c(N5CCC[C@@](C)(O)C5)nc(OCC5(CN(C)C)CC5)nc4c3F)c12 [Example 11, (R)-1-(2-((1-((dimethylamino)methyl)cyclopropyl)methoxy)-7-((R)-8-ethyl-7-fluoro-3-hydroxynaphthalen-1-yl)-6,8-difluoroquinazolin-4-yl)-3-methylpiperidin-3-ol]",91,49,,,,,
"N#Cc1c(N)sc2c(F)ccc(-c3c(Cl)cc4c(N5CCCn6nnc(Cl)c6C5)nc(OC[C@@]56CCCN5C[C@H](F)C6)nc4c3F)c12 (single isomer, unassigned) [Example 197]",,,,,,,IC50 [1]: 2 nM; IC50 [2]: 12 nM; IC50 [4]: 10 nM; IC50 [5]: 3 nM
"CCc1c(F)ccc2cc(O)cc(-c3c(F)cc4c(N5CCCn6nc(C(=O)N(C)C)c(Cl)c6C5)nc(OC[C@@]56CCCN5C[C@H](F)C6)nc4c3F)c12 [Example 78, 3-chloro-5-(7-(8-ethyl-7-fluoro-3-hydroxynaphthalen-1-yl)-6,8-difluoro-2-(((2R,7aS)-2-fluorohexahydro-1H-pyrrolizin-7a-yl)methoxy)quinazolin-4-yl)-N,N-dimethyl-5,6,7,8-tetrahydro-4H-pyrazolo[1,5-a][1,4]diazepine-2-carboxamide]",98,75,75,94,96,81,
"CCc1c(F)ccc2cc(O)cc(-c3ccc4c(N5CCCC6(CCO6)C5)nc(OC[C@@]56CCCN5C[C@H](F)C6)nc4c3F)c12 (stereo partly drawn) [Example 71, 5-ethyl-6-fluoro-4-(8-fluoro-2-(((2R,7aS)-2-fluorohexahydro-1H-pyrrolizin-7a-yl)methoxy)-4-(1-oxa-6-azaspiro[3.5]nonan-6-yl)quinazolin-7-yl)naphthalen-2-ol]",90,65,38,82,94,87,
"CCc1c(F)ccc2cc(O)cc(-c3c(F)cc4c(N5CCCn6nc(C(=O)N7CCN(C)CC7)cc6C5)nc(OC[C@@]56CCCN5C[C@H](F)C6)nc4c3F)c12 [Example 76, (5-(7-(8-ethyl-7-fluoro-3-hydroxynaphthalen-1-yl)-6,8-difluoro-2-(((2R,7aS)-2-fluorohexahydro-1H-pyrrolizin-7a-yl)methoxy)quinazolin-4-yl)-5,6,7,8-tetrahydro-4H-pyrazolo[1,5-a][1,4]diazepin-2-yl)(4-methylpiperazin-1-yl)methanone]",90,43,16,42,90,31,
"CCc1c(F)ccc2cc(O)cc(-c3ccc4c(N5CCCn6nc(C(=O)N7CCOCC7)c(Cl)c6C5)nc(OC[C@@]56CCCN5C[C@H](F)C6)nc4c3F)c12 [Example 73, (3-chloro-5-(7-(8-ethyl-7-fluoro-3-hydroxynaphthalen-1-yl)-8-fluoro-2-(((2R,7aS)-2-fluorohexahydro-1H-pyrrolizin-7a-yl)methoxy)quinazolin-4-yl)-5,6,7,8-tetrahydro-4H-pyrazolo[1,5-a][1,4]diazepin-2-yl)(morpholino)methanone]",97,71,48,71,97,,
"C[C@@]1(O)COCCN(c2nc(OC[C@@]34CCCN3C[C@H](F)C4)nc3c(F)c(-c4ccc(F)c5sc(N)c(C#N)c45)c(Cl)cc23)C1 (atropisomer, axis not shown; (aS)) [Example 193, 2-amino-4-((S)-6-chloro-8-fluoro-2-(((2R,7aS)-2-fluorotetrahydro-1H-pyrrolizin-7a(5H)-yl)methoxy)-4-((S)-6-hydroxy-6-methyl-1,4-oxazepan-4-yl)quinazolin-7-yl)-7-fluorobenzo[b]thiophene-3-carbonitrile]",,,,,,,IC50 [1]: 414 nM; IC50 [2]: 686 nM
"N#Cc1c(N)sc2c(F)ccc(-c3c(Cl)cc4c(N5CCCn6nnc(Cl)c6C5)nc(OC[C@@]56CCCN5C[C@H](F)C6)nc4c3F)c12 (single isomer, unassigned) [Example 196]",,,,,,,IC50 [1]: 531 nM; IC50 [2]: 2820 nM; IC50 [4]: 2420 nM; IC50 [5]: 472 nM
"CN(C)C(=O)c1cc2n(n1)CCCN(c1nc(OC[C@@]34CCCN3C/C(=C\F)C4)nc3c(F)c(-c4ccc(F)c5sc(N)c(C#N)c45)c(Cl)cc13)C2 (atropisomer, axis not shown) [Example 194, 5-((S)-7-(2-amino-3-cyano-7-fluorobenzo[b]thiophen-4-yl)-6-chloro-8-fluoro-2-(((S,Z)-2-(fluoromethylene)tetrahydro-1H-pyrrolizin-7a(5H)-yl)methoxy)quinazolin-4-yl)-N,N-dimethyl-5,6,7,8-tetrahydro-4H-pyrazolo[1,5-a][1,4]diazepine-2-carboxamide]",,,,,,,"IC50 ([1]; Homo sapiens, ASPC1, 3 h): 192 nM; IC50 [2]: 342 nM; IC50 [3]: 896 nM; IC50 [4]: 605 nM; IC50 [6]: 427 nM; IC50 [5]: 128 nM"
"N#Cc1c(N)sc2c(F)ccc(-c3c(Cl)cc4c(N5C[C@@H]6C(=O)NC(=O)[C@@H]6C5)nc(OC[C@@]56CCCN5C[C@H](F)C6)nc4c3F)c12 [Example 200, 2-amino-4-(6-chloro-4-((3aR,6aS)-4,6-dioxohexahydropyrrolo[3,4-c]pyrrol-2(1H)-yl)-8-fluoro-2-(((2R,7aS)-2-fluorotetrahydro-1H-pyrrolizin-7a(5H)-yl)methoxy)quinazolin-7-yl)-7-fluorobenzo[b]thiophene-3-carbonitrile]",,,,,,,"IC50 ([1]; Homo sapiens, ASPC1, 3 h): 2740 nM; IC50 ([2]; Homo sapiens, NCI-H727, 3 h): 4730 nM; IC50 ([3]; Homo sapiens, HCT-116, 3 h): 4560 nM; IC50 ([4]; Homo sapiens, A549, 3 h): > 10000 nM; IC50 ([6]; Homo sapiens, NCI-H460, 3 h): 2760 nM; IC50 ([5]; Homo sapiens, NCI-H358, 3 h): 1680 nM"
"CCc1c(F)ccc2cc(O)cc(-c3c(F)cc4c(N5CCCC6(CCO6)C5)nc(OC[C@@]56CCCN5C[C@H](F)C6)nc4c3F)c12 (stereo partly drawn) [Example 77, 4-(6,8-difluoro-2-(((2R,7aS)-2-fluorotetrahydro-1H-pyrrolizin-7a(5H)-yl)methoxy)-4-(1-oxa-6-azaspiro[3.5]nonan-6-yl)quinazolin-7-yl)-5-ethyl-6-fluoronaphthalen-2-ol]",87,66,45,82,96,86,
"CCc1c(F)ccc2cc(O)cc(-c3ccc4c(N5CCCn6nc(C(=O)N(C)C)c(C)c6C5)nc(OC[C@@]56CCCN5C[C@H](F)C6)nc4c3F)c12 [Example 75, 5-(7-(8-ethyl-7-fluoro-3-hydroxynaphthalen-1-yl)-8-fluoro-2-(((2R,7aS)-2-fluorohexahydro-1H-pyrrolizin-7a-yl)methoxy)quinazolin-4-yl)-N,N,3-trimethyl-5,6,7,8-tetrahydro-4H-pyrazolo[1,5-a][1,4]diazepine-2-carboxamide]",95,73,29,79,98,,
"CCc1c(F)ccc2cc(O)cc(C3Cc4nc(OC[C@@]56CCCN5C[C@H](F)C6)nc(N5CCCC6(C5)NC(=O)NC6=O)c4CO3)c12 (stereo partly drawn) [Example 87, 7-(7-(8-ethyl-7-fluoro-3-hydroxynaphthalen-1-yl)-2-(((2R,7aS)-2-fluorotetrahydro-1H-pyrrolizin-7a(5H)-yl)methoxy)-7,8-dihydro-5H-pyrano[4,3-d]pyrimidin-4-yl)-1,3,7-triazaspiro[4.5]decane-2,4-dione]",,,-5,16,30,-8,
